According to publication PMC10573254, “Development of Novel Class of Phenylpyrazolo[3,4-d]pyrimidine-Based Analogs with Potent Anticancer Activity and Multitarget Enzyme Inhibition Supported by Docking Studies” (International Journal of Molecular Sciences, 2023):
Where two headings read alike, the source gives them in different places. Blank lines part the entries; values can stand above or below the compound they belong to.

Columns and labels:
HCT-116 = experiment: MTT cytotoxicity assay, HCT-116; type: cell-based; conditions: Homo sapiens
EGFR^T790M = EGFR^T790M (Homo sapiens, UniProt P00533, T790M); experiment: In vitro EGFR T790M kinase inhibitory assay
Sequence of EGFR^T790M (P00533 25-1210 T790M): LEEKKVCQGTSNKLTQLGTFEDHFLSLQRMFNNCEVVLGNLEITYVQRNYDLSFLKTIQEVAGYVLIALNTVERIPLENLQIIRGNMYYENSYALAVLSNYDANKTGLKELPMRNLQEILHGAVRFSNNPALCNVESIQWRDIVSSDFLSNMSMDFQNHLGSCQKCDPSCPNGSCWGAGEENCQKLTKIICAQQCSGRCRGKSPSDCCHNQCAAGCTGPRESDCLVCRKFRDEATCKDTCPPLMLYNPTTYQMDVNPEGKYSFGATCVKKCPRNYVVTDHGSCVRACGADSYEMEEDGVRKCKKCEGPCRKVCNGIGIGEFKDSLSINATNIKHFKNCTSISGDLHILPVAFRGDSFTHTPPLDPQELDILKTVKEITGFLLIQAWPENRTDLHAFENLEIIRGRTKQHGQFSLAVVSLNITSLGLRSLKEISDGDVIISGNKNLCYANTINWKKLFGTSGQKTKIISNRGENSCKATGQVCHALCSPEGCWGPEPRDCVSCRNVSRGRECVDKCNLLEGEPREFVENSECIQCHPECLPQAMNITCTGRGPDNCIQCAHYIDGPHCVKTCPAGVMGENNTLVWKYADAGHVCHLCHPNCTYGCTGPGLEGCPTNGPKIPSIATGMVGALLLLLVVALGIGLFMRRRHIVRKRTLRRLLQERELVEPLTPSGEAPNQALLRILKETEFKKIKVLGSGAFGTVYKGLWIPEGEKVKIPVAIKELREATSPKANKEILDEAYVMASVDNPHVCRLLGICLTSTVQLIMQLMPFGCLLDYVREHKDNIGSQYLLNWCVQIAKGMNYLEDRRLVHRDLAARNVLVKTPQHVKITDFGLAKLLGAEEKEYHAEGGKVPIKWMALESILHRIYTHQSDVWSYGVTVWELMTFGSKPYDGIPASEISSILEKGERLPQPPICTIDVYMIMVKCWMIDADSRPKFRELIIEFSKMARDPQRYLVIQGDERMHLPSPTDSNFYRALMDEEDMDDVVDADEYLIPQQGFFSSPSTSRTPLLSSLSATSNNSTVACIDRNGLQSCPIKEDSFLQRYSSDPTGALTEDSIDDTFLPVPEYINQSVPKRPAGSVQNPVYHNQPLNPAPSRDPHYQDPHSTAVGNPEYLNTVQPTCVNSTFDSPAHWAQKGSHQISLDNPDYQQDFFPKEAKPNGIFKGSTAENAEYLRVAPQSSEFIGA
Experimental: (§5) The assays were conducted in Vacsera (Giza, Egypt). Curve fitting was performed using GraphPad Prism. Data are represented as means ± SD from three independent experiments.
Assay : EGFR-T490M kinase assay
Reader : Tecan-spark reader
Kit used : BPS bioscience EGFR assay kit.

EGFR^WT = EGFR^WT (Homo sapiens, UniProt P00533); experiment: In vitro EGFR enzyme inhibitory assay; type: biochemical
Sequence of EGFR^WT (P00533 25-1210): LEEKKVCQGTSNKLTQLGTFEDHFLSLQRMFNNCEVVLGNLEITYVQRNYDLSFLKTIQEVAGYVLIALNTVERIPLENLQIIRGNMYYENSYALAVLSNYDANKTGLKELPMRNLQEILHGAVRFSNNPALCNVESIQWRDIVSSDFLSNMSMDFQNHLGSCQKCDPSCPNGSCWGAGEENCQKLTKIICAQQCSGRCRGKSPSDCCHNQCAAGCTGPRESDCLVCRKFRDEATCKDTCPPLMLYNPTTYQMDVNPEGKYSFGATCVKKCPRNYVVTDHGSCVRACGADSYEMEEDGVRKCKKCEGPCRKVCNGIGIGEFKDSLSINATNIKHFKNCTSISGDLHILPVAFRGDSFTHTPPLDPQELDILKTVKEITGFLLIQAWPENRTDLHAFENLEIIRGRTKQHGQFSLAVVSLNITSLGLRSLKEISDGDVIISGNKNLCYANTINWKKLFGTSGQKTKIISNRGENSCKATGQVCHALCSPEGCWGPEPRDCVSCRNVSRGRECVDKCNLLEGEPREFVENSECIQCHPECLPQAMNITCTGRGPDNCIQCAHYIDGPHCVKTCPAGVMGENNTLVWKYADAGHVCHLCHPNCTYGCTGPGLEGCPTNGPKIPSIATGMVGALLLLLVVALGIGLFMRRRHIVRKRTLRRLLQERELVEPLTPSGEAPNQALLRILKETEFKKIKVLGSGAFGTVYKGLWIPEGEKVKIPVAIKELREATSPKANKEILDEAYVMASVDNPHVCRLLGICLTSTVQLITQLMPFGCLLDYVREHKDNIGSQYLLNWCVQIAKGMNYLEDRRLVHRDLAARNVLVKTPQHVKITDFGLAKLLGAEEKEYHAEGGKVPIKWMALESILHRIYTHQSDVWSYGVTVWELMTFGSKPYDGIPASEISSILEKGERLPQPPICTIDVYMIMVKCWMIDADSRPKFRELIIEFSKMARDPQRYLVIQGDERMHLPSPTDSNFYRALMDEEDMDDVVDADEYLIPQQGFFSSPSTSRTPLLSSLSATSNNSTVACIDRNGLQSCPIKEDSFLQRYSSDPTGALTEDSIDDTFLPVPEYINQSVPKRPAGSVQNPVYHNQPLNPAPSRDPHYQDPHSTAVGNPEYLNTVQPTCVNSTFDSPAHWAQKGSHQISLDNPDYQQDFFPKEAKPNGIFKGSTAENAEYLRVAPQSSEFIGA
Experimental: as §5
Reader : Tecan Spark Reader

VEGFR-2 = VEGFR-2 (Homo sapiens, UniProt P35968); experiment: In vitro VEGFR2 enzyme inhibitory assay; type: biochemical
Sequence of VEGFR-2 (P35968 20-1356): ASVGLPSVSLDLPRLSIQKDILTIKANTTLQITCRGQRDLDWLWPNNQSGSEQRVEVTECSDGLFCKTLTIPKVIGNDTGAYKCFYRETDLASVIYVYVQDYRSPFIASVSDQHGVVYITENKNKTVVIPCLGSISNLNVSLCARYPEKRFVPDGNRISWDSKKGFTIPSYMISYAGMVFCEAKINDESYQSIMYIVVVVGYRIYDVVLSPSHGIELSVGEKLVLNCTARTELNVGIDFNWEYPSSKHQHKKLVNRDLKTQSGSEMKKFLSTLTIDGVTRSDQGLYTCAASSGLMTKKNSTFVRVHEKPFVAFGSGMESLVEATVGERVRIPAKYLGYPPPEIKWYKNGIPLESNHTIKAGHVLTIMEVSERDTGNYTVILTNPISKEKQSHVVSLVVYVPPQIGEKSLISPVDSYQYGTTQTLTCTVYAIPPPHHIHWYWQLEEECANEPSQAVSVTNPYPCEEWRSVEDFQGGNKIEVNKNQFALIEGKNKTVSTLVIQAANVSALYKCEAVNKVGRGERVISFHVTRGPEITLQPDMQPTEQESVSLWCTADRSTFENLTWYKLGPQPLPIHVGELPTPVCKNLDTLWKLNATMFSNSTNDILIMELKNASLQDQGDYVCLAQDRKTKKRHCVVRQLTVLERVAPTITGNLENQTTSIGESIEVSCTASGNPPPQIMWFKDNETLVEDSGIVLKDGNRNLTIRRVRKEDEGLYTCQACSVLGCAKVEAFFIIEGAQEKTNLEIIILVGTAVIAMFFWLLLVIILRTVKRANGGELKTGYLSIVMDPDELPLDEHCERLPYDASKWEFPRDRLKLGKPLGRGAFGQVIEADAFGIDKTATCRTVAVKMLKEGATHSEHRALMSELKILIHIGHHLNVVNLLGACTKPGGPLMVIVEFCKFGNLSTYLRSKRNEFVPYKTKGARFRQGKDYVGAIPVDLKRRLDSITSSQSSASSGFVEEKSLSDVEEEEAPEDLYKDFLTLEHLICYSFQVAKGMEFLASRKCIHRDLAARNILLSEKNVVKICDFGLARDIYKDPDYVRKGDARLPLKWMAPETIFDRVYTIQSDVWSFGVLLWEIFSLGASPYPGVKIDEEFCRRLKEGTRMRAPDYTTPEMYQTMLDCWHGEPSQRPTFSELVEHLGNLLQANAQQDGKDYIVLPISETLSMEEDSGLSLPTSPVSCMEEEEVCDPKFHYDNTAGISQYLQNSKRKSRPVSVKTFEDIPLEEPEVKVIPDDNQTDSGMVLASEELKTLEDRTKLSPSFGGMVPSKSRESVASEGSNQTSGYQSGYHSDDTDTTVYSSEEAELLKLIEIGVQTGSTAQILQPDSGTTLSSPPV
Experimental: (§1) Curve fitting was performed using GraphPad Prism.
(§2) (1 picture or pasted object on this page, not shown here)

Topo-II = molecular target: T1, Topo-II (Homo sapiens, UniProt Q02880); experiment: In vitro Topo II inhibitory assay; type: biochemical
T1 construct: purchased
Experimental: as §1, §2

WI-38 = experiment: MTT assay on normal cell line WI-38; type: cell-based; conditions: normal human diploid fibroblasts
Experimental: (§3) According to our design, the tested compounds are classified into four categories based on the length and the chemotype of the spacer (Figure 3). In the first category, we used monosubstituted hydrazone linker. […] The second category is represented by […] hydrazone linker.
(§4) The cytotoxic activity was assessed using the 3-(4,5-dimethylthiazol-2-yl)-2,5-diphenyl tetrazolium bromide (MTT) colorimetric assay, as reported previously. Doxorubicin was used as a reference standard, and DMSO was used as a negative control. Briefly, the designated cell lines were cultured at a concentration of 5 × 10^4 cell/well in 96-well plates. The cells were incubated for 24 h under optimum conditions. Following this, the designated molecules were introduced (in serial dilutions from 0 to 50 μg/mL), and the cells were incubated for an additional 24 h. Following this, the media were withdrawn, and 100 μL of fresh medium was added. Then, 10 µL of the 12 mM MTT stock solution was administered to each well. The plates were then incubated for 4 h. […] An 85-μL aliquot of the media was removed from the wells, and 50 µL of DMSO was added to each well and mixed thoroughly with the pipette and incubated at 37 °C for 10 min. Then, the optical density was measured at 590 nm with the microplate reader (Sunrise, TECAN, Inc., Morrisville, NC, USA).

[1] = system: MCF-7, HCT116, and HePG-2; experiment: MTT assay against three malignant cell lines (summary); type: cell-based; conditions: Homo sapiens, read-out: IC50 cytotoxicity (range over cell lines)
Experimental: as §3, §4

MCF-7 = experiment: MTT cytotoxicity assay, MCF-7; type: cell-based; conditions: Homo sapiens, MCF7
Experimental: The cytotoxic activity was assessed using the 3-(4,5-dimethylthiazol-2-yl)-2,5-diphenyl tetrazolium bromide (MTT) colorimetric assay, as reported previously [62, 63]. […] Briefly, the designated cell lines were cultured at a concentration of 5 × 10^4 cell/well in 96-well plates. The cells were incubated for 24 h under optimum conditions. Following this, the designated molecules were introduced (in serial dilutions from 0 to 50 μg/mL), and the cells were incubated for an additional 24 h. Following this, the media were withdrawn, and 100 μL of fresh medium was added. Then, 10 µL of the 12 mM MTT stock solution was administered to each well. The plates were then incubated for 4 h. Then, the cells were exposed to different compounds at the desired concentrations (0.01, 0.1, 1, 10, and 100 µM) or to 1% dimethyl sulfoxide (DMSO) for 48 and 72 h. […] Then, the optical density was measured at 590 nm with the microplate reader (Sunrise, TECAN, Inc., Morrisville, NC, USA).

HePG-2 = experiment: MTT cytotoxicity assay, HePG-2; type: cell-based; conditions: Homo sapiens, HepG2
Experimental: as §4

[2] = HCT-116, read-out: IC50 HCT-116, MTT, colon cancer cells
[3] = MTT, breast cancer cells, read-out: IC50 MCF-7
[4] = MTT, liver cancer cells, read-out: IC50 HePG-2

Compound: Cc1nc(NN=Cc2ccc(O)cc2)c2cnn(-c3ccccc3)c2n1 [Compound 5b, 4-((2-(6-Methyl-1-phenyl-1H-pyrazolo[3,4-d]pyrimidin-4-yl)hydrazineylidene)methyl)phenol]
IC50 (HCT-116; [2]): 5.65 ± 0.3 µM
IC50 (HCT-116; HCT-116, 24 h incubation, read-out: IC50 HCT116 24 h): 5.65 ± 0.3 µM
IC50 (HCT-116; HCT-116, 48 h incubation, read-out: IC50 HCT116 48 h): 9.82 ± 0.9 µM
IC50 (HCT-116; HCT-116, 72 h incubation, read-out: IC50 HCT116 72 h): 4.09 ± 0.3 µM
melting point: 162 to 164 °C
IC50 (EGFR^T790M): 1.93 ± 0.08 µM
EGFR T790M %inh at conc 0.01 (EGFR^T790M; conc 0.01 (conc.ng/ml)): 37%
EGFR T790M %inh at conc 0.1 (EGFR^T790M; conc 0.1 (conc.ng/ml)): 54%
EGFR T790M %inh at conc 1 (EGFR^T790M; conc 1 (conc.ng/ml)): 77%
EGFR T790M %inh at conc 10 (EGFR^T790M; conc 10 (conc.ng/ml)): 87%
EGFR %inh at conc 0.01 (EGFR^WT; conc 0.01, unit not given): 28%
EGFR %inh at conc 0.1 (EGFR^WT; conc 0.1, unit not given): 46%
EGFR %inh at conc 1 (EGFR^WT; conc 1, unit not given): 71%
EGFR %inh at conc 10 (EGFR^WT; conc 10, unit not given): 87%
IC50 (EGFR^WT; supplement lab report, read-out: EGFR IC50 (lab report) (converted)): 0.366 µM
VEGFR2 %inh at conc 0.01 (VEGFR-2; conc 0.01, unit not given): 13%
VEGFR2 %inh at conc 0.1 (VEGFR-2; conc 0.1, unit not given): 25%
VEGFR2 %inh at conc 1 (VEGFR-2; conc 1, unit not given): 50%
VEGFR2 %inh at conc 10 (VEGFR-2; conc 10, unit not given): 70%
target selectivity index EGFR over VGFR-2 (VEGFR-2; fold, EGFR^WT versus VGFR-2): 20
IC50 (VEGFR-2; read-out: IC50 VGFR2): 15.7 ± 0.32 µM
IC50 (VEGFR-2; supplement lab report, read-out: VEGFR2 IC50 (lab report) (converted)): 15.7 µM
TOPO IiB %inh at conc 0.1 (Topo-II; conc 0.1, unit not given): 6.7%
TOPO IiB %inh at conc 1 (Topo-II; conc 1, unit not given): 12%
TOPO IiB %inh at conc 10 (Topo-II; conc 10, unit not given): 31%
TOPO IiB %inh at conc 100 (Topo-II; conc 100, unit not given): 66%
IC50 (Topo-II; read-out: IC50 Topo-II): 108 ± 2.2 µM
IC50 (Topo-II; supplement lab report, Human DNA Topoisomerase 2B Kit, read-out: TOP2a IC50 (lab report) (converted)): 108 µM
IC50 (WI-38; Homo sapiens, WI-38, MTT): > 35 µM
IC50 (WI-38; MTT): 35 ± 0.3 µM
IC50 [1]: 3 to 10 µM
IC50 (MCF-7; 24 h incubation, read-out: IC50 MCF-7 24 h): 10.5 ± 0.7 µM
IC50 (MCF-7; 48 h incubation, read-out: IC50 MCF-7 48 h): 9.82 ± 0.9 µM
IC50 (MCF-7; 72 h incubation, read-out: IC50 MCF-7 72 h): 5.16 ± 0.4 µM
IC50 (MCF-7; [3]): 10.5 ± 0.7 µM
IC50 (HePG-2; 24 h incubation, read-out: IC50 HePG-2 24 h): 9.12 ± 0.7 µM
IC50 (HePG-2; 48 h incubation, read-out: IC50 HePG-2 48 h): 7.6 ± 0.7 µM
IC50 (HePG-2; 72 h incubation, read-out: IC50 HePG-2 72 h): 5.16 ± 0.4 µM
IC50 (HePG-2; [4]): 9.12 ± 0.7 µM

Compound: CC(=NNc1nc(C)nc2c1cnn2-c1ccccc1)c1ccc(Cl)cc1Br [Compound 5l, 4-(2-(1-(2-Bromo-4-chlorophenyl)ethylidene)hydrazineyl)-6-methyl-1-phenyl-1H-pyrazolo[3,4-d] pyrimidine]
IC50 (HCT-116; [2]): 14.6 ± 1.1 µM
melting point: 257 to 259 °C
IC50 (MCF-7; [3]): 29.2 ± 1.8 µM
IC50 (HePG-2; [4]): 17.1 ± 1.3 µM

Now from value to compound, other results behind:

melting point: 250 to 252 °C
Compound: Cc1nc2c(cnn2-c2ccccc2)c2nncn12 [Compound 6a, 5-Methyl-7-phenyl-7H-pyrazolo[4,3-e][1,2,4]triazolo[4,3-c]pyrimidine]
IC50 (HCT-116; [2]): 34.6 ± 2.2 µM
IC50 (MCF-7; [3]): 49.6 ± 3.1 µM
IC50 (HePG-2; [4]): 37.5 ± 2.7 µM

melting point: 267 to 269 °C
Compound: Cc1nc2c(cnn2-c2ccccc2)c2nnc(C(F)(F)F)n12 [Compound 6b, 5-Methyl-7-phenyl-3-(trifluoromethyl)-7H-pyrazolo[4,3-e][1,2,4]triazolo[4,3-c]pyrimidine]
IC50 (HCT-116; [2]): 26.1 ± 1.8 µM
IC50 (MCF-7; [3]): 39.1 ± 2.5 µM
IC50 (HePG-2; [4]): 25.2 ± 2 µM

melting point: 250 to 252 °C
Compound: Cc1nc2c(cnn2-c2ccccc2)c2nnc(C(Cl)(Cl)Cl)n12 [Compound 6c, 5-Methyl-7-phenyl-3-(trichloromethyl)-7H-pyrazolo[4,3-e][1,2,4]triazolo[4,3-c]pyrimidine]
IC50 (HCT-116; [2]): 37.2 ± 2.4 µM
IC50 (MCF-7; [3]): 54.2 ± 3.4 µM
IC50 (HePG-2; [4]): 56.2 ± 3.5 µM

melting point: 240 to 242 °C
Compound: CC(=O)CC(C)=Nc1nc(C)nc2c1cnn2-c1ccccc1 [Compound 6d, 4-((6-Methyl-1-phenyl-1H-pyrazolo[3,4-d]pyrimidin-4-yl)imino)pentan-2-one]
IC50 (HCT-116; [2]): 93.4 ± 5.2 µM
IC50 (MCF-7; [3]): 84.6 ± 4.6 µM
IC50 (HePG-2; [4]): 89.2 ± 4.7 µM
